ChEMBL document CHEMBL4020748, “Benzoxazolinone aryl sulfonamides as potent, selective Nav1.7 inhibitors with in vivo efficacy in a preclinical pain model” (Bioorg Med Chem Lett, 2017)
Calls of active or inactive are those of the source. No cut-off for these calls is given here.

Experiments:
[1] = Selectivity ratio of IC50 for human Nav1.5alpha expressed in HEK293 cells to human Nav1.7alpha expressed in HEK293 cells
Rattus norvegicus = experiment: Unbound plasma clearance in Wistar Hannover rat at 2 mg/kg, iv; assay type: ADME, organism-based; conditions: in vivo
[2] = Half life in Wistar Hannover rat at 2 mg/kg, iv; assay type: ADME, organism-based; conditions: in vivo
[3] = Oral bioavailability in Wistar Hannover rat at 10 mg/kg; assay type: ADME, organism-based; conditions: in vivo
[4] = Apparent permeability of the compound; assay type: physicochemical; conditions: not told
[5] = molecular target: T1, Sodium channel protein type 9 subunit alpha (Homo sapiens, UniProt Q15858); experiment: Inhibition of 50% inactivated human Nav1.7alpha expressed in HEK293 cells incubated for 5 mins measured at 10 secs interval by PatchXpress automated electrophysiology method; assay type: cell-based
[6] = molecular target: Sodium channel protein type 5 subunit alpha (Homo sapiens, UniProt Q14524); experiment: Inhibition of 50% inactivated human Nav1.5alpha expressed in HEK293 cells incubated for 5 mins measured at 10 secs interval by PatchXpress automated electrophysiology method; assay type: ADME, cell-based
[7] = Ratio of drug level in brain to plasma in rat; assay type: ADME
[8] = molecular target: Voltage-dependent L-type calcium channel subunit alpha-1C (Homo sapiens, UniProt Q13936); experiment: Activity at Cav1.2 (unknown origin)
[9] = molecular target: T1, Sodium channel protein type 9 subunit alpha; experiment: Inhibition of NaV1.7 channel in human DRG neurons assessed as reduction of TTX-sensitive current by whole cell patch clamp assay
[10] = molecular target: T2, Sodium channel protein type 9 subunit alpha (Mus musculus, UniProt Q62205); experiment: Inhibition of NaV1.7 channel in mouse DRG neurons assessed as reduction of TTX-sensitive current by whole cell patch clamp assay
[11] = molecular target: Sodium channel protein type 9 subunit alpha (Rattus norvegicus, UniProt O08562); experiment: Inhibition of NaV1.7 channel in rat DRG neurons assessed as reduction of TTX-sensitive sodium current by whole cell patch clamp assay
[12] = molecular target: T3, Nuclear receptor subfamily 1 group I member 2 (Homo sapiens, UniProt O75469); experiment: Activity at PXR (unknown origin); assay type: ADME
T3 sequence (O75469 whole entry): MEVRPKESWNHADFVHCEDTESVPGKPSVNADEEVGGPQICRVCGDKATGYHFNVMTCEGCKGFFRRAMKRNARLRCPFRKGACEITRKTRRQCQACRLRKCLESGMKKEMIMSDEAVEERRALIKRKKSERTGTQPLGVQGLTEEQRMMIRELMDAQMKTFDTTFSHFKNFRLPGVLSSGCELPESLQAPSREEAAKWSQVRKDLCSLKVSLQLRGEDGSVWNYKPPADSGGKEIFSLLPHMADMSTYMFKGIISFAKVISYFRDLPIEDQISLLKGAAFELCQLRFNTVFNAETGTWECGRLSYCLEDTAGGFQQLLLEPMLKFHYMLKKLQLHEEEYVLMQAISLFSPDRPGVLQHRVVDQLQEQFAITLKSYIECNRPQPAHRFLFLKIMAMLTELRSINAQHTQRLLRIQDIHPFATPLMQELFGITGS

[13] = molecular target: Voltage-gated inwardly rectifying potassium channel KCNH2 (Homo sapiens, UniProt Q12809); experiment: Activity at human ERG
[14] = Ratio of drug level in CSF to plasma in rat; assay type: ADME
[15] = Fraction unbound in Wistar Hannover rat plasma; assay type: ADME, cell-free
Mus musculus [16] = experiment: Analgesic activity in C57BL/6 mouse assessed as reduction in formalin-induced nociceptive behavior at 100 mg/kg, sc pretreated for 90 mins followed by formalin challenge measured up to 5 mins; assay type: functional, organism-based
[17] = Activity at CYP450 (unknown origin); assay type: ADME; conditions: human
[18] = molecular target: Sodium channel protein type 2 subunit alpha (Homo sapiens, UniProt Q99250); experiment: Inhibition of Nav1.2 (unknown origin)
Mus musculus [19] = experiment: Analgesic activity in C57BL/6 mouse assessed as reduction in formalin-induced nociceptive behavior at 100 mg/kg, sc pretreated for 90 mins followed by formalin challenge measured after 20 to 35 mins; assay type: functional, organism-based
[20] = Fraction unbound in C57BL/6 mouse plasma at 100 mg/kg, sc; assay type: ADME, organism-based
Mus musculus [21] = experiment: Analgesic activity in C57BL/6 mouse assessed as unbound concentration required for 50% reduction in formalin-induced nociceptive behavior at 100 mg/kg, sc pretreated for 90 mins followed by formalin challenge measured after 20 to 35 mins; assay type: functional
[22] = molecular target: T2, Sodium channel protein type 9 subunit alpha; experiment: Inhibition of 50% inactivated mouse Nav1.7alpha incubated for 5 mins measured at 10 secs interval by PatchXpress automated electrophysiology method
[23] = Ratio of fIC50 for analgesic activity in formalin-induced nociceptive C57BL/6 mouse model assessed as reduction in nociceptive behavior to IC50 for 50% inactivated mouse Nav1.7alpha
Mus musculus [24] = experiment: Analgesic activity in C57BL/6 mouse assessed as reduction in formalin-induced nociceptive behavior administered subcutaneously pretreated for 90 mins followed by formalin challenge measured up to 30 mins; assay type: functional

T1 sequence (Q15858 whole entry): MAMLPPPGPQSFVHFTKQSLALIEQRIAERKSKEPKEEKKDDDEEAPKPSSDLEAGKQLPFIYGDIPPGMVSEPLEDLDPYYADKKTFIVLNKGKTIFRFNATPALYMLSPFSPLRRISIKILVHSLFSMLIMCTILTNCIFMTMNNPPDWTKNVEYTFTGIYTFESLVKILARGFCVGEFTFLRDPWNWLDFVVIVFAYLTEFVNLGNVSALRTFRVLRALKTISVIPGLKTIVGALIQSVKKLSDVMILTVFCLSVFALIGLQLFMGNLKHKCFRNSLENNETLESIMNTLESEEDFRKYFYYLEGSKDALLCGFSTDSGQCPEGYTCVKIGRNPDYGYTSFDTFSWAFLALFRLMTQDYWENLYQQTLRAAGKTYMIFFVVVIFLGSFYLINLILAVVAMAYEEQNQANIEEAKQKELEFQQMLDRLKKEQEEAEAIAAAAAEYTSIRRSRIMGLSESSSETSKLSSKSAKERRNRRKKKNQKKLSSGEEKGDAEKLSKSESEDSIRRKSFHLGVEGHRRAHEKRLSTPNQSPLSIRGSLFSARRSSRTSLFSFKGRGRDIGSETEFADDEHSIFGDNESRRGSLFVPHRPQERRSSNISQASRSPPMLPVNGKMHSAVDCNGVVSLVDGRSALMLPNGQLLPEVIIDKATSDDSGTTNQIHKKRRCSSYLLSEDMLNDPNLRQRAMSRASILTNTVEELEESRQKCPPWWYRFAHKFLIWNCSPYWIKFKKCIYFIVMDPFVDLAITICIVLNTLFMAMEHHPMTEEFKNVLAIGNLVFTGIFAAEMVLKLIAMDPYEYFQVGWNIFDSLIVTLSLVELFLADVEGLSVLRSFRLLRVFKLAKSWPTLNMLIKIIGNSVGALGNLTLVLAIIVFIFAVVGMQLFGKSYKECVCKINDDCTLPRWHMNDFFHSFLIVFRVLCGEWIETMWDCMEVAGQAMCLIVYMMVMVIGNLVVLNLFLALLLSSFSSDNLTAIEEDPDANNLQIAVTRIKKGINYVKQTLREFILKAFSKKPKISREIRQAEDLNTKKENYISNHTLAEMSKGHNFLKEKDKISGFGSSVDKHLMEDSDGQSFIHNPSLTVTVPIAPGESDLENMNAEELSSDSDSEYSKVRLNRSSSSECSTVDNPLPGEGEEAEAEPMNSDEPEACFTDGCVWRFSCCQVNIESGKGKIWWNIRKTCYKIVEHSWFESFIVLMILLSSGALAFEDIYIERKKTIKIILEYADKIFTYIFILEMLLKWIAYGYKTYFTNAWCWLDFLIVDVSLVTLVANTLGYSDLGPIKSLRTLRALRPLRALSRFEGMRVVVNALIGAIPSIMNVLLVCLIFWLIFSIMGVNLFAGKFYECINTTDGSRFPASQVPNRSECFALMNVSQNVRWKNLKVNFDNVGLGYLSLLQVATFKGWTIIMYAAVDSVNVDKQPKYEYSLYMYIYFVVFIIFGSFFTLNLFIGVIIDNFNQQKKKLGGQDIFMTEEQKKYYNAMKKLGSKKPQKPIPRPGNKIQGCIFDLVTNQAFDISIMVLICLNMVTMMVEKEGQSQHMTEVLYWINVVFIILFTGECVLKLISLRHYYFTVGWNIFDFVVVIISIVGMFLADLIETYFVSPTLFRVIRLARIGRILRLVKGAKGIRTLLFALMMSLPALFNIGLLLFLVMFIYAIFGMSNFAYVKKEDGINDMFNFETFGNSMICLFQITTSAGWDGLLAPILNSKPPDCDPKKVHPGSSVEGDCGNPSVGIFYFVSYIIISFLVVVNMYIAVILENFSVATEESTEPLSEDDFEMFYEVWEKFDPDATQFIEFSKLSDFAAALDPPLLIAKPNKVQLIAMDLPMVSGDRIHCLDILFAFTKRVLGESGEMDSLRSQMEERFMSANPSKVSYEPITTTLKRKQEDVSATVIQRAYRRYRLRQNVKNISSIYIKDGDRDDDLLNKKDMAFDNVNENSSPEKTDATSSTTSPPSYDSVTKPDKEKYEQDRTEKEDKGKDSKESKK
T2 sequence (Q62205 whole entry): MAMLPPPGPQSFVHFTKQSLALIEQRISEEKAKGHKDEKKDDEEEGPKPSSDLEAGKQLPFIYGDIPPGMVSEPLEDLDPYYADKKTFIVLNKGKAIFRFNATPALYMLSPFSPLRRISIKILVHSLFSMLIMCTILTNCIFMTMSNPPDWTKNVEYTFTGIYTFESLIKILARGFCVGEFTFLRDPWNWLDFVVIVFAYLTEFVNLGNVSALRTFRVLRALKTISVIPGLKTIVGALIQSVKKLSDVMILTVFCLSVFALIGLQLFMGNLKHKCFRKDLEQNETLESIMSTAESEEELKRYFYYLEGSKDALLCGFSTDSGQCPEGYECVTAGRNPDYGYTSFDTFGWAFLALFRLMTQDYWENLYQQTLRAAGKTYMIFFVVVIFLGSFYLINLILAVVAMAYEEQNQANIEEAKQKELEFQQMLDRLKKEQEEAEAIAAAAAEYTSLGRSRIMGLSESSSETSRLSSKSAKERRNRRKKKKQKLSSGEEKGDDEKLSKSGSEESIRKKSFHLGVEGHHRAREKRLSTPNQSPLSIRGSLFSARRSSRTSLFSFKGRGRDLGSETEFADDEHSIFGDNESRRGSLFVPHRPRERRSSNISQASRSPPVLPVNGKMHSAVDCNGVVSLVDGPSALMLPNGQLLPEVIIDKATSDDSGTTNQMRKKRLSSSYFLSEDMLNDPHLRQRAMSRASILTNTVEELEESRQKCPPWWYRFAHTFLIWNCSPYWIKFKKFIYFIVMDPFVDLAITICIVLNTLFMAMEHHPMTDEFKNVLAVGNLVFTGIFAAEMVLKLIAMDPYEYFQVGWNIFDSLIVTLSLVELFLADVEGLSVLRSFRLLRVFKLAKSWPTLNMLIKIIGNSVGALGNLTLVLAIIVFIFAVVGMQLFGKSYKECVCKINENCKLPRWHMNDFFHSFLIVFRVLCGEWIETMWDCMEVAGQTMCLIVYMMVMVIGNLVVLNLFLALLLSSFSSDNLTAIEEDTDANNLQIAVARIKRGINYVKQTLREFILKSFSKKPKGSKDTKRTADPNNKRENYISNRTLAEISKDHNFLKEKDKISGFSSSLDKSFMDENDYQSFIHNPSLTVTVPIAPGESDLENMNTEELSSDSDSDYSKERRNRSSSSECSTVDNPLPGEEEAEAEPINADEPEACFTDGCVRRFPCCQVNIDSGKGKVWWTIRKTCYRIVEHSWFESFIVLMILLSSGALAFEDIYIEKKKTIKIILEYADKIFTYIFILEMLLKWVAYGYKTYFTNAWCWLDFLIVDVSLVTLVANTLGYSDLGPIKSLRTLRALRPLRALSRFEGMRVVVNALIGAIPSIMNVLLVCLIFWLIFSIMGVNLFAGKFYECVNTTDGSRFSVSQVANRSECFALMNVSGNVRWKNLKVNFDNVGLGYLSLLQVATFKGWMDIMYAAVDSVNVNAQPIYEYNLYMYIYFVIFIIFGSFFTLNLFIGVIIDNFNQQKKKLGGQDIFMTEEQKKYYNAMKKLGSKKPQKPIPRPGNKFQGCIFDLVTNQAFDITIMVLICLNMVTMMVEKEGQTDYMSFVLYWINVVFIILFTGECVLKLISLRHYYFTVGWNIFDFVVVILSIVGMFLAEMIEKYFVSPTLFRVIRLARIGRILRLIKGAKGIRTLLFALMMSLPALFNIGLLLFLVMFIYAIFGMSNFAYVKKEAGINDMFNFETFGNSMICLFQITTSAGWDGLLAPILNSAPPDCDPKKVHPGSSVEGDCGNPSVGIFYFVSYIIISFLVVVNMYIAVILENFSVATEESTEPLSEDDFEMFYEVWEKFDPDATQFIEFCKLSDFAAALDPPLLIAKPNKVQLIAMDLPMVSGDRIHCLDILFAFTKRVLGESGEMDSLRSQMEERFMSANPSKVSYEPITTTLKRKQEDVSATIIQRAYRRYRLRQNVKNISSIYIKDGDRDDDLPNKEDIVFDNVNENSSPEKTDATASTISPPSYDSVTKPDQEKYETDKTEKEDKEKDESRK
Sequence of Voltage-gated inwardly rectifying potassium channel KCNH2 (Q12809 whole entry): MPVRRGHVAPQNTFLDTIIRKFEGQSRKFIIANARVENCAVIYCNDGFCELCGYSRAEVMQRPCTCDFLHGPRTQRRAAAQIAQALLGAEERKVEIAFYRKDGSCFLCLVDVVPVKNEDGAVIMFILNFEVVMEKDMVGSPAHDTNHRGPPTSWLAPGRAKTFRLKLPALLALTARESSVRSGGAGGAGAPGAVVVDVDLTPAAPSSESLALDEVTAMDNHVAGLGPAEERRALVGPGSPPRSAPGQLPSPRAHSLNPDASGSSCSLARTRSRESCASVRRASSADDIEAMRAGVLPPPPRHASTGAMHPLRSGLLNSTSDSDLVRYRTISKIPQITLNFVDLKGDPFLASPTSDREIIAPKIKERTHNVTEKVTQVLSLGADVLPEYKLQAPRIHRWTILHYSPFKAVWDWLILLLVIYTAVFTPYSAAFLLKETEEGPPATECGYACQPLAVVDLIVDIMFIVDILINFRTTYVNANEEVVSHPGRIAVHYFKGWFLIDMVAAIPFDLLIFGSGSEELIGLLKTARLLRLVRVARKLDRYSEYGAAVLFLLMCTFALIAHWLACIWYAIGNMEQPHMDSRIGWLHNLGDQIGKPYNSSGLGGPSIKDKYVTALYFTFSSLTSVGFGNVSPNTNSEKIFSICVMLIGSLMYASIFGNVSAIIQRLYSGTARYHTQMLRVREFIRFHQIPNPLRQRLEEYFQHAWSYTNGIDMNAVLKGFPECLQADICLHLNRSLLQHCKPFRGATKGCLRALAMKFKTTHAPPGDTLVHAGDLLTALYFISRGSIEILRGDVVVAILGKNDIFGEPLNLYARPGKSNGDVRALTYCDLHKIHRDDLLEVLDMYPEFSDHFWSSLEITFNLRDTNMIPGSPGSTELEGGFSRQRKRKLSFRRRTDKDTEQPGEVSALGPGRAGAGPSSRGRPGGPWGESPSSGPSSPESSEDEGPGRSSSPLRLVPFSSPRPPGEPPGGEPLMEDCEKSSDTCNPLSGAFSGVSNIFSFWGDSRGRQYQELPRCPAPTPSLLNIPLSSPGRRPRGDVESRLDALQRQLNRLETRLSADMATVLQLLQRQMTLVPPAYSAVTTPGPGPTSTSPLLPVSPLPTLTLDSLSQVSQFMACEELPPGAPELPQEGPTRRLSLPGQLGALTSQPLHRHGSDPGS

## C[C@H](c1cccc2c1CNCC2)n1c(=O)oc2cc(S(=O)(=O)Nc3ccc(F)cn3)c(F)cc21
[1]
  Ratio IC50: 108

## C[C@H](c1cccc2c1CNCC2)n1c(=O)oc2cc(S(=O)(=O)Nc3cccc(F)n3)c(F)cc21
[1]
  Ratio IC50: 210
Rattus norvegicus
  CL free: 300 mL/min/kg
[2]
  half-life: 1.9 h
[3]
  bioavailability: 30%
[4]
  Papp: 2.5 ×10⁻⁶ cm/s
[5]
  IC50: 150 nM

## O=C1COc2cc(S(=O)(=O)Nc3ncns3)ccc2N1Cc1ccccc1
[1]
  Ratio IC50: >37
[6]
  IC50: > 30000 nM
[5]
  IC50: 815 nM

## C[C@H](c1cccc2c1CNCC2)n1c(=O)oc2cc(S(=O)(=O)Nc3ncns3)ccc21
[7]
  BPR: 1%
[8]
  Activity: Not Active
[1]
  Ratio IC50: 1381
[9]
  IC50: 31 nM
[10]
  IC50: 82 nM
[11]
  IC50: 2370 nM
[12]
  Activity: Not Active
[13]
  Activity: Not Active
[14]
  Ratio: 0%
Rattus norvegicus
  CL free: 360 mL/min/kg
[15]
  fraction unbound: 0.133
[2]
  half-life: 0.8 h
[3]
  bioavailability: 2%
[4]
  Papp: < 2 ×10⁻⁶ cm/s
Mus musculus [16]
  Activity: Active
[5]
  IC50: 21 nM
[17]
  Activity: Not Active
[18]
  IC50: 29 nM
Mus musculus [19]
  IC50: 23000 nM
[20]
  fraction unbound: 0.065
Mus musculus [21]
  fIC50: 1.5 µM
[22]
  IC50: 30 nM
[23]
  Ratio: 50
Mus musculus [24]
  Activity: Dose-dependent effect

## C[C@H](c1ccccc1)n1c(=O)oc2cc(S(=O)(=O)Nc3ncns3)ccc21
[1]
  Ratio IC50: 287

## C[C@H](c1cccc2c1CNCC2)n1c(=O)oc2cc(S(=O)(=O)Nc3cc(Cl)ccn3)c(F)cc21
[1]
  Ratio IC50: 88

## O=c1oc2cc(S(=O)(=O)Nc3ncns3)ccc2n1Cc1cccc2c1CNCC2
[1]
  Ratio IC50: >158
[5]
  IC50: 190 nM

## O=c1sc2cc(S(=O)(=O)Nc3ncns3)ccc2n1Cc1ccccc1
[1]
  Ratio IC50: >31
[6]
  IC50: > 30000 nM
[5]
  IC50: 970 nM

## C[C@H](c1ccccc1CN)n1c(=O)oc2cc(S(=O)(=O)Nc3cccc(F)n3)c(F)cc21
[1]
  Ratio IC50: 850
Rattus norvegicus
  CL free: 170 mL/min/kg
[2]
  half-life: 3 h
[3]
  bioavailability: 50%
[4]
  Papp: 4 ×10⁻⁶ cm/s
[5]
  IC50: 39 nM
Mus musculus [19]
  IC50: 7400 nM
[20]
  fraction unbound: 0.145
Mus musculus [21]
  fIC50: 1.1 µM
[22]
  IC50: 11 nM
[23]
  Ratio: 100

## O=S(=O)(Nc1ncns1)c1ccc2c(cnn2Cc2ccccc2)c1
[1]
  Ratio IC50: 6

## O=c1oc2cc(S(=O)(=O)Nc3ncns3)ccc2n1Cc1ccccc1
[1]
  Ratio IC50: >62
[6]
  IC50: > 30000 nM
